Laboratory results published in the NIST ThermoML archive (doi:10.1016/j.fluid.2010.06.003).
Several values for one entry are separate records, joined by “and”; a condition that tells them apart may be missing. Identical values can stand only once.

Test: xn = mol fraction of the nth substance listed
Conditions: Liquid, Taylor dispersion method, x1 = 0

Compound | binary diffusion coefficient (313.15 K, 11030 kPa) | binary diffusion coefficient (313.15 K, 11090 kPa) | binary diffusion coefficient (313.15 K, 16010 kPa) | binary diffusion coefficient (313.15 K, 16020 kPa) | binary diffusion coefficient (313.15 K, 16030 kPa) | binary diffusion coefficient (313.15 K, 19010 kPa) | binary diffusion coefficient (313.15 K, 19020 kPa) | binary diffusion coefficient (323.15 K, 16020 kPa) | binary diffusion coefficient (323.15 K, 16030 kPa) | binary diffusion coefficient (313.15 K, 160 kPa) | binary diffusion coefficient (313.15 K, 170 kPa) | binary diffusion coefficient (313.15 K, 200 kPa) | other results
C[c-]1cccc1.C[c-]1cccc1.[Fe+2] [1,1'-dimethylferrocene] + C1CCCCC1 | 1.2e-09 m2/s | 1.21e-09 m2/s | 1.14e-09 m2/s | 1.14e-09 m2/s | 1.13e-09 m2/s | 1.09e-09 m2/s | 1.09e-09 m2/s and 1.14e-09 m2/s and 1.11e-09 m2/s | 1.36e-09 m2/s | 1.36e-09 m2/s |  |  |  | binary diffusion coefficient (313.15 K, 190 kPa): 1.36e-09 m2/s and 1.37e-09 m2/s; binary diffusion coefficient (313.15 K, 11020 kPa): 1.2e-09 m2/s; binary diffusion coefficient (323.15 K, 16000 kPa): 1.36e-09 m2/s
C[c-]1cccc1.C[c-]1cccc1.[Fe+2] [1,1'-dimethylferrocene] + CCCCCC | 3.05e-09 m2/s and 3.06e-09 m2/s |  | 2.9e-09 m2/s |  | 2.9e-09 m2/s |  | 2.84e-09 m2/s |  |  | 3.36e-09 m2/s and 3.4e-09 m2/s and 3.37e-09 m2/s | 3.41e-09 m2/s |  | binary diffusion coefficient (313.15 K, 15990 kPa): 2.9e-09 m2/s; binary diffusion coefficient (313.15 K, 16000 kPa): 2.89e-09 m2/s and 2.87e-09 m2/s
C[c-]1cccc1.C[c-]1cccc1.[Fe+2] [1,1'-dimethylferrocene] + CCO |  |  |  |  |  |  |  |  |  |  |  | 1.29e-09 m2/s and 1.3e-09 m2/s and 1.31e-09 m2/s | 
CCc1ccc[cH-]1.[Fe+2].c1cc[cH-]c1 [ethyl ferrocene] + C1CCCCC1 | 1.2e-09 m2/s |  |  |  | 1.14e-09 m2/s and 1.15e-09 m2/s | 1.12e-09 m2/s and 1.15e-09 m2/s | 1.12e-09 m2/s | 1.36e-09 m2/s | 1.35e-09 m2/s |  | 1.38e-09 m2/s |  | binary diffusion coefficient (313.15 K, 180 kPa): 1.36e-09 m2/s and 1.38e-09 m2/s; binary diffusion coefficient (313.15 K, 11020 kPa): 1.21e-09 m2/s; binary diffusion coefficient (313.15 K, 19030 kPa): 1.11e-09 m2/s
CCc1ccc[cH-]1.[Fe+2].c1cc[cH-]c1 [ethyl ferrocene] + CCCCCC |  |  | 2.86e-09 m2/s and 2.89e-09 m2/s |  | 2.87e-09 m2/s | 2.78e-09 m2/s |  |  |  | 3.35e-09 m2/s and 3.37e-09 m2/s and 3.38e-09 m2/s and 3.3e-09 m2/s and 3.34e-09 m2/s |  |  | binary diffusion coefficient (313.15 K, 11060 kPa): 2.98e-09 m2/s; binary diffusion coefficient (313.15 K, 11070 kPa): 3e-09 m2/s and 2.99e-09 m2/s; binary diffusion coefficient (313.15 K, 18960 kPa): 2.81e-09 m2/s
CCc1ccc[cH-]1.[Fe+2].c1cc[cH-]c1 [ethyl ferrocene] + CCO |  |  |  |  |  |  |  |  |  |  |  | 1.29e-09 m2/s and 1.32e-09 m2/s and 1.31e-09 m2/s | 
[CH]1C=CC=C1.[CH]1C=CC=C1.[Fe] [ferrocene] + C1CCCCC1 | 1.31e-09 m2/s | 1.32e-09 m2/s | 1.25e-09 m2/s | 1.25e-09 m2/s | 1.25e-09 m2/s | 1.21e-09 m2/s | 1.21e-09 m2/s and 1.22e-09 m2/s and 1.24e-09 m2/s | 1.48e-09 m2/s | 1.48e-09 m2/s |  | 1.52e-09 m2/s | 1.5e-09 m2/s | binary diffusion coefficient (313.15 K, 190 kPa): 1.51e-09 m2/s; binary diffusion coefficient (313.15 K, 11080 kPa): 1.31e-09 m2/s
[CH]1C=CC=C1.[CH]1C=CC=C1.[Fe] [ferrocene] + CCCCCC |  | 3.29e-09 m2/s | 3.13e-09 m2/s | 3.12e-09 m2/s | 3.11e-09 m2/s and 3.14e-09 m2/s |  | 3.07e-09 m2/s |  |  | 3.66e-09 m2/s and 3.65e-09 m2/s | 3.64e-09 m2/s |  | binary diffusion coefficient (313.05 K, 16020 kPa): 3.14e-09 m2/s; binary diffusion coefficient (313.05 K, 16030 kPa): 3.11e-09 m2/s; binary diffusion coefficient (313.15 K, 10990 kPa): 3.28e-09 m2/s and 3.25e-09 m2/s; binary diffusion coefficient (313.15 K, 11070 kPa): 3.28e-09 m2/s; binary diffusion coefficient (313.15 K, 15990 kPa): 3.17e-09 m2/s
[CH]1C=CC=C1.[CH]1C=CC=C1.[Fe] [ferrocene] + CCO |  |  |  |  |  |  |  |  |  |  |  | 1.48e-09 m2/s and 1.46e-09 m2/s and 1.45e-09 m2/s | 
